Source: ChEMBL document CHEMBL1125402, “Conformational effects on the activity of drugs. 13. A revision of previously proposed models for the activation of alpha- and beta-adrenergic receptors” (J Med Chem, 1992)

What was measured:
[1] = molecular target: T1, Beta-1 adrenergic receptor (Rattus norvegicus, UniProt P18090); experiment: Compound was evaluated for beta adrenergic binding affinity towards beta-1 receptor of rat brain
[2] = molecular target: Beta-2 adrenergic receptor (Cavia porcellus) (UniProt Q8K4Z4); experiment: Intrinsic activity was expressed as the ratio between maximal response elicited by compound and that elicited by full agonist ISO towards beta 2 receptor of isolated guinea pig tracheal strip (exp 1); assay type: functional
Sequence of Beta-2 adrenergic receptor (Cavia porcellus) (Q8K4Z4 whole entry, looked up): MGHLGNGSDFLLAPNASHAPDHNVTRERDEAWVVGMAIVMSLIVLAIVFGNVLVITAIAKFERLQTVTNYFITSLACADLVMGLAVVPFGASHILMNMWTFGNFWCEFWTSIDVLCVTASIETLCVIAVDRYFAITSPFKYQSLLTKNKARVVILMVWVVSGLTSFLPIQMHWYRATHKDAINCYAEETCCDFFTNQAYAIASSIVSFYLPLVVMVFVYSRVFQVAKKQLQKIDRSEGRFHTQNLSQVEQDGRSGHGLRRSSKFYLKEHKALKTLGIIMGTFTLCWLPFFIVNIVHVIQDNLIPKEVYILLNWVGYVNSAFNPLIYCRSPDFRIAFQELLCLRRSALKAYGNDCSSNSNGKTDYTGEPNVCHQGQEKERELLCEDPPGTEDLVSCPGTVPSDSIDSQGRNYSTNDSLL

[3] = molecular target: T2, Adrenergic receptor alpha-1 (Rattus norvegicus, UniProt P15823+P23944+P43140); experiment: Binding affinity towards Alpha-1 adrenergic receptor of rat brain
T2 sequence (P15823 whole entry): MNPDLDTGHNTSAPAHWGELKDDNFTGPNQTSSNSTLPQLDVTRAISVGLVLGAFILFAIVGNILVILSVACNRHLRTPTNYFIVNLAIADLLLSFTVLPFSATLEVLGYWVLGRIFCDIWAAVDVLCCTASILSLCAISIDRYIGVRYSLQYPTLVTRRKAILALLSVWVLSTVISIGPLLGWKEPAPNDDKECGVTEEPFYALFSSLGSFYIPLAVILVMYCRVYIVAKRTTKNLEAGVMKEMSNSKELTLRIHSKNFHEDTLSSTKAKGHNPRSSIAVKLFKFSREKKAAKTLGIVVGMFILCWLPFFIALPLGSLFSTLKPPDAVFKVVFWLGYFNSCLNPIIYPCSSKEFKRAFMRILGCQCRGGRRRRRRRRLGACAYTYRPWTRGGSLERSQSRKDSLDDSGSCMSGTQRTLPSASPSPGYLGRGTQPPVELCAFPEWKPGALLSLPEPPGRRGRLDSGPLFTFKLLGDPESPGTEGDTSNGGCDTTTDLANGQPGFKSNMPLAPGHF
T2 sequence (P23944 whole entry): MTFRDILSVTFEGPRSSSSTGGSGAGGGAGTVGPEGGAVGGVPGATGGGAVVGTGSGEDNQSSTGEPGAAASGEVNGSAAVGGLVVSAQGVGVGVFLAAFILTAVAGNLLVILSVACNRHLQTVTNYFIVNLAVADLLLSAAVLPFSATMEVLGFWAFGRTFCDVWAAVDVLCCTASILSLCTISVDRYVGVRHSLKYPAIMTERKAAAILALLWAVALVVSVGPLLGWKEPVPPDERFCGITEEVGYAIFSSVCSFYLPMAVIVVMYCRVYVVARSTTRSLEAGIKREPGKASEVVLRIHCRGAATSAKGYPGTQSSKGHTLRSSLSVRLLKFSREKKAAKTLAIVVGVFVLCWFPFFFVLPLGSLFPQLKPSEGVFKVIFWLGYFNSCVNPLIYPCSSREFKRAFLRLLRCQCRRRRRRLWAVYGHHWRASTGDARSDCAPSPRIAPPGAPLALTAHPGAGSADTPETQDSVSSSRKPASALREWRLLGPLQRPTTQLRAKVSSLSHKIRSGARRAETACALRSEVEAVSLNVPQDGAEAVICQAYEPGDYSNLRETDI
T2 sequence (P43140 whole entry): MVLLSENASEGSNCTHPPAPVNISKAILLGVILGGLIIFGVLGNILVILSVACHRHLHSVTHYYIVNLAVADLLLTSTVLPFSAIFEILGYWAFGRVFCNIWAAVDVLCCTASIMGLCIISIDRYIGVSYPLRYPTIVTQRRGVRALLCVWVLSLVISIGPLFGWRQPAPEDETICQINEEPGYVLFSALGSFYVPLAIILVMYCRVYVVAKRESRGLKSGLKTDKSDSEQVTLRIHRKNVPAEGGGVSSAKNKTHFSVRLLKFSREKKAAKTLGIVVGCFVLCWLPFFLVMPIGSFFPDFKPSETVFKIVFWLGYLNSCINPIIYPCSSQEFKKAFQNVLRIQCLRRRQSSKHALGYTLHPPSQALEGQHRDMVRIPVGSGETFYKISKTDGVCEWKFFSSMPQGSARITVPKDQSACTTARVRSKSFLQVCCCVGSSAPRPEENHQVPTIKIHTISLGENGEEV

[4] = molecular target: Beta-1 adrenergic receptor (Cavia porcellus) (UniProt B0FL73); experiment: Intrinsic activity was expressed as the ratio between maximal response elicited by compound and that elicited by full agonist ISO towards Beta-1 adrenergic receptor of isolated guinea pig atria (exp 1); assay type: functional
Sequence of Beta-1 adrenergic receptor (Cavia porcellus) (B0FL73 1-467): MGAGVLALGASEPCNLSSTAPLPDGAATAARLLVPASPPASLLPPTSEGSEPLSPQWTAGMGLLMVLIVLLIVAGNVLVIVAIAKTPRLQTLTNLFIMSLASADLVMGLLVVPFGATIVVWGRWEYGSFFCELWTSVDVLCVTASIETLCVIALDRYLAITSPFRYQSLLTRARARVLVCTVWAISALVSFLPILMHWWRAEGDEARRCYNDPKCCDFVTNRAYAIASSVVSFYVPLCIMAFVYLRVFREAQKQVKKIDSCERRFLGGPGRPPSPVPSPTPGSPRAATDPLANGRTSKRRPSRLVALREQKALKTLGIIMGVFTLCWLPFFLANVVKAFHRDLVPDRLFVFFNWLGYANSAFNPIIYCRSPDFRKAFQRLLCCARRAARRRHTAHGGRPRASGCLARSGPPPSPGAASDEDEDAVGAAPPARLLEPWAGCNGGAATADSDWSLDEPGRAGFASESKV

[5] = molecular target: Beta-1 adrenergic receptor (Cavia porcellus) (UniProt B0FL73); experiment: Compound was evaluated for beta adrenoceptor agonistic activity towards beta 1 receptor of isolated guinea pig atria (exp 2); assay type: functional
[6] = molecular target: Beta-1 adrenergic receptor (Cavia porcellus) (UniProt B0FL73); experiment: Compound was evaluated for beta adrenoceptor agonistic activity towards Beta-1 adrenergic receptor of isolated guinea pig atria (exp 1); assay type: functional
[7] = molecular target: T3, Beta-2 adrenergic receptor (Bos taurus, UniProt Q28044); experiment: Compound was evaluated for beta adrenergic binding affinity towards beta-2 receptor of bovine lung
T3 sequence (Q28044 whole entry): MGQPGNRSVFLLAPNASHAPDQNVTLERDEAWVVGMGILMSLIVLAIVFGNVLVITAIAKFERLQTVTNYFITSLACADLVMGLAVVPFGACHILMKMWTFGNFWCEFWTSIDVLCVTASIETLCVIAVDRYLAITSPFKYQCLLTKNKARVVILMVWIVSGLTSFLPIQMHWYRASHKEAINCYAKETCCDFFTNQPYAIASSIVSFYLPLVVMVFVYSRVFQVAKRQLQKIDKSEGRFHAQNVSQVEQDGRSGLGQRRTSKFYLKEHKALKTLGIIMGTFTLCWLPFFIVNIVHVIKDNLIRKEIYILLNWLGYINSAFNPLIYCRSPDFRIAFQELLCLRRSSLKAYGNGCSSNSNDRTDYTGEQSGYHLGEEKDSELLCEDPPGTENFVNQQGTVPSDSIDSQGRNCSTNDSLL

[8] = molecular target: Beta-1 adrenergic receptor (Cavia porcellus) (UniProt B0FL73); experiment: Compound was evaluated for beta adrenergic […]
[9] = molecular target: Beta-2 adrenergic receptor (Cavia porcellus) (UniProt Q8K4Z4); experiment: Intrinsic activity was expressed as the ratio between maximal response elicited by compound and that elicited by full agonist ISO towards Beta-2 adrenergic receptor of isolated guinea pig tracheal strip (exp 1); assay type: functional
[10] = molecular target: Beta-2 adrenergic receptor (Cavia porcellus) (UniProt Q8K4Z4)
Description: Compound was evaluated for beta adrenoceptor agonistic activity towards Beta-2 adrenergic receptor of isolated guinea pig tracheal strip (exp 2)

[11] = molecular target: T4, Adrenergic receptor alpha-2 (Rattus norvegicus, UniProt P22086+P19328+P22909); experiment: Compound was evaluated for alpha adrenergic binding affinity towards Alpha-2 adrenergic receptor of rat brain
T4 sequence (P22086 whole entry): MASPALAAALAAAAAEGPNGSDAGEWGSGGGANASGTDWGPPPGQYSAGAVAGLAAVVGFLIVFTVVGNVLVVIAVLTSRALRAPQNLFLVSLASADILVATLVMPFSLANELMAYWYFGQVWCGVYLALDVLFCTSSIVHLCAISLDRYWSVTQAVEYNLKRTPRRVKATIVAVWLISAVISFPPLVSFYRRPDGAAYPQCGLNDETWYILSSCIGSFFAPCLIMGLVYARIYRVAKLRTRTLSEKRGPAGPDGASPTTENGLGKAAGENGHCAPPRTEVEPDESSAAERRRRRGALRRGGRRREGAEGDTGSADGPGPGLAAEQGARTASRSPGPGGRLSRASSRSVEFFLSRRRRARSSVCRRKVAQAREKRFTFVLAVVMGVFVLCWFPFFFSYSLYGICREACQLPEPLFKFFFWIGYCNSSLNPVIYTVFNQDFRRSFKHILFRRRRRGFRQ
T4 sequence (P19328 whole entry): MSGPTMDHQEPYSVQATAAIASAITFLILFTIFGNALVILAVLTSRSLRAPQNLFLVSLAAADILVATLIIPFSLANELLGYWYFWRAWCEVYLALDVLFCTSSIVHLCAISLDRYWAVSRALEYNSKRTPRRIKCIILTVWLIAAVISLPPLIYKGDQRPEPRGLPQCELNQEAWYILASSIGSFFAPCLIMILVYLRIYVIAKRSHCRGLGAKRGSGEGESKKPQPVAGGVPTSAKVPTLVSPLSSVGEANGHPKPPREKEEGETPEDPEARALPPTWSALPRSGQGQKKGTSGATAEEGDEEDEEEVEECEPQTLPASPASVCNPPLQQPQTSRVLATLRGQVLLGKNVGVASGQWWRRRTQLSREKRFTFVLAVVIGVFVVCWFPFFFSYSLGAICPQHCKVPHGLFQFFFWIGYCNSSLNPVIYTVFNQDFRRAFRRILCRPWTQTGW
T4 sequence (P22909 whole entry): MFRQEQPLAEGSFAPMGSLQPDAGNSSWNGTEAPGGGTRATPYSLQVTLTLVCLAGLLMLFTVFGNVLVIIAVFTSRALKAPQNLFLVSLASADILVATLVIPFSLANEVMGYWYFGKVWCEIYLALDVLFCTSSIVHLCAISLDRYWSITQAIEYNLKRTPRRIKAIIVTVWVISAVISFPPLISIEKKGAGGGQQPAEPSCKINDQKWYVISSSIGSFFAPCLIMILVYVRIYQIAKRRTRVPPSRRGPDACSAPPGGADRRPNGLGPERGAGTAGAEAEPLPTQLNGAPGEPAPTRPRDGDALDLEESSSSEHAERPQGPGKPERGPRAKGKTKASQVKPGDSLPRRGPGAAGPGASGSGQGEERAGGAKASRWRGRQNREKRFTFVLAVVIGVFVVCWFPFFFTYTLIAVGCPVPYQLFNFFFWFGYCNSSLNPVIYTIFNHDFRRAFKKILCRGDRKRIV

[12] = molecular target: T5, Adrenergic receptor alpha-2 (Homo sapiens) (UniProt P08913+P18825+P18089); conditions: Cavia porcellus; Ileum
Description: Intrinsic activity was expressed as the ratio between maximal response elicited by compound and that elicited by full agonist NE towards Alpha-2 adrenergic receptor of isolated guinea pig ileum

[13] = molecular target: Beta-2 adrenergic receptor (Cavia porcellus) (UniProt Q8K4Z4); experiment: Intrinsic activity was expressed as the ratio between maximal response elicited by compound and that elicited by full agonist ISO towards beta 2 receptor of isolated guinea pig tracheal strip (exp 2); assay type: functional
[14] = molecular target: T4, Adrenergic receptor alpha-2; experiment: Binding affinity towards Alpha-2 adrenergic receptor of rat brain
[15] = molecular target: Beta-1 adrenergic receptor (Cavia porcellus) (UniProt B0FL73); experiment: Intrinsic activity was expressed as the ratio between maximal response elicited by compound and that elicited by full agonist ISO towards beta-1 receptor of isolated guinea pig atria; assay type: functional
[16] = molecular target: T5, Adrenergic receptor alpha-2 (Homo sapiens); experiment: Compound was evaluated for alpha adrenoceptor agonistic activity towards alpha-2 adrenergic receptor of isolated guinea pig ileum; assay type: functional, tissue-based; conditions: Cavia porcellus, target entry is the homologue from another species
[17] = molecular target: T1, Beta-1 adrenergic receptor
Description: Compound was evaluated for beta adrenergic binding affinity towards Beta-1 adrenergic receptor of rat brain

[18] = molecular target: T3, Beta-2 adrenergic receptor; experiment: Compound was evaluated for beta adrenergic binding affinity towards Beta-2 adrenergic receptor of bovine lung
[19] = molecular target: T6, Adrenergic receptor alpha-1 (Rattus norvegicus) (UniProt P15823+P23944+P43140); experiment: Intrinsic activity was expressed as the ratio between maximal response elicited by compound and that elicited by full agonist NE towards Alpha-1 adrenergic receptor of isolated rat vas deferens; assay type: functional, tissue-based
[20] = molecular target: Beta-1 adrenergic receptor (Cavia porcellus) (UniProt B0FL73); experiment: Compound was evaluated for beta adrenoceptor agonistic activity towards Beta-1 adrenergic receptor of isolated guinea pig atria; assay type: functional
[21] = molecular target: T5, Adrenergic receptor alpha-2 (Homo sapiens); experiment: Intrinsic activity was expressed as the ratio between maximal response elicited by compound and that elicited by full agonist NE towards alpha-2 adrenergic receptor of isolated guinea pig ileum; assay type: functional, tissue-based; conditions: Cavia porcellus
[22] = molecular target: Beta-2 adrenergic receptor (Cavia porcellus) (UniProt Q8K4Z4); experiment: Compound was evaluated for beta adrenoceptor agonistic activity towards Beta-2 adrenergic receptor of isolated guinea pig tracheal strip; assay type: functional
[23] = molecular target: T6, Adrenergic receptor alpha-1 (Rattus norvegicus); experiment: Compound was evaluated for alpha adrenoceptor agonistic activity towards Alpha-1 adrenergic receptor of isolated rat vas deferens; assay type: functional, tissue-based
[24] = molecular target: Beta-1 adrenergic receptor (Cavia porcellus) (UniProt B0FL73)
[25] = molecular target: Beta-2 adrenergic receptor (Cavia porcellus) (UniProt Q8K4Z4); remark: listed apart in the source
Description: Compound was evaluated for beta adrenoceptor agonistic activity towards beta 2 receptor of isolated guinea pig tracheal strip

[26] = molecular target: T6, Adrenergic receptor alpha-1 (Rattus norvegicus); conditions: Vas deferens
[27] = molecular target: T6, Adrenergic receptor alpha-1 (Rattus norvegicus); experiment: Intrinsic activity was expressed as the ratio between maximal response elicited by compound and that elicited by full agonist NE towards Alpha-1 adrenergic receptor of isolated rat vas deferens; ND=No data; assay type: functional
[28] = molecular target: Beta-1 adrenergic receptor (Cavia porcellus) (UniProt B0FL73); experiment: Intrinsic activity was expressed as the ratio between maximal response elicited by compound and that elicited by full agonist ISO towards beta 1 receptor of isolated guinea pig atria; assay type: functional

T1 sequence (P18090 whole entry): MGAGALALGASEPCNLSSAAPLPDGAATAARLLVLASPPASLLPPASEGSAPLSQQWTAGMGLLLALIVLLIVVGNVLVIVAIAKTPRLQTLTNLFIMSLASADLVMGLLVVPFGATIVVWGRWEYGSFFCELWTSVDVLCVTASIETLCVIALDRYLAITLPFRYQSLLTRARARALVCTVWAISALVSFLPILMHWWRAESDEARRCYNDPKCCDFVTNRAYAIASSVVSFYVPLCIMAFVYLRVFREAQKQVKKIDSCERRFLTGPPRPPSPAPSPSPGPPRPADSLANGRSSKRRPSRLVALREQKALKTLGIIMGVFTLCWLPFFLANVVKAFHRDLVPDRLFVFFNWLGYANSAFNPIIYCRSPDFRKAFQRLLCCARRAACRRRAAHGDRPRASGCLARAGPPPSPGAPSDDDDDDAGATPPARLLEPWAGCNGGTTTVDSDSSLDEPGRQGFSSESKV

SMILES | Ki [3] | Ki [7] | Ki [11] | pD2 [12] | Ki [14] | pD2 [16] | Ki [17] | Ki [18] | pD2 [20] | Intrinsic activity [21] | pD2 [22] | pD2 [24] | pD2 [25] | also measured
CC(C)N1CCOC(c2ccc(O)c(O)c2)C1 (configuration not stated) | 6.7 µM | 36 µM | 5.1 µM | 5 | – | – | – | – | – | – | – | – | – | Ki [1]: 48 µM; Intrinsic activity [2]: 0.87; Intrinsic activity [4]: 0.88; pD2 [5]: 5.74; Intrinsic activity [6]: 0.77; pD2 [8]: 4.62; pD2 [9]: 5.91; pD2 [10]: 6.34; Intrinsic activity [13]: 0.93
N[C@@H]1CCc2cc(O)c(O)cc2[C@H]1O | 0.3 µM | – | – | – | 0.09 µM | 6.63 | > 100 µM | 71 µM | 4.57 | 1.42 | 5.36 | – | – | Intrinsic activity [15]: 0.81; Intrinsic activity [19]: 0.5; pD2 [23]: 4.6
NC[C@H](O)c1ccc(O)c(O)c1 [NOREPINEPHRINE] | – | 6 µM | – | 6.56 | – | – | – | – | – | – | – | 6.32 | 6.03 | pD2 [26]: 5.12; Intrinsic activity [23]: 1
CC(C)NC1CCc2cc(O)c(O)cc2[C@H]1O (some centres not stated) | 1.2 µM | > 100 µM | 1.57 µM | 5.72 | – | – | > 100 µM | – | – | – | – | 4.44 | 6.17 | pD2 [27]: < 3.5
CC(C)N1CCCC(O)(c2ccc(O)c(O)c2)C1 (configuration not stated) | 36 µM | – | – | – | 4.8 µM | 4.57 | 60 µM | 92 µM | 3.5 | 0.89 | 4.64 | – | – | Intrinsic activity [28]: 0.16
